# According to US20250179187A1, “ANTI PD-L2 ANTIBODY” (REJUVERON SENESCENCE THERAPEUTICS AG, priority 2022, published 2025):
# Test system: PyMT spontaneous tumors
# Experiment: Spontaneous mouse PyMT breast tumor model with tumor immunostaining
# Type: in vivo
# Conditions: immunohistochemistry; antibody co-treated with doxorubicin vs Vehicle or Doxorubicin+mIgG1 (p<0.05)
# Procedure: Hemizygous transgenic PyMT mice were allowed to develop tumors to an average size of around 200 cubic millimeters, usually around 9 weeks, at which time treatment was initiated, with N=3-5 per treatment group. Doxorubicin (Aurovitas) was administered intraperitoneally once per week at 4 mg/kg and antibodies were administered every three days at a dose of 10 mg/kg during four weeks or 3 mg/kg where noted. Vehicle-treated animals received only vehicle solvent for doxorubicin as a no-treatment control. Tumors were measured with a standard caliper once per week. At the end of the study, tumors were resected and further analyzed by immunohistochemistry. […]
# For double SA-beta-galactosidase/PD-L2 staining, following resection, tumors were fixed in 2% paraformaldehyde and 0.2% glutaldehyde in PBS for 2 hours at room temperature. […] To quantify the number of cells double positive for SA-beta-galactosidase and PDL2, 3 random fields from 2 mammary glands from each animal in each treatment group was analyzed with Image J software. Staining for CD3, CD4 and CD8 was also carried out by standard immunohistochemistry techniques on paraffin-embedded material and quantified according to pixel density using Image J software.
smiles,measurement,value
"COc1cccc2c1C(=O)c1c(O)c3c(c(O)c1C2=O)C[C@@](O)(C(=O)CO)C[C@@H]3O[C@H]1C[C@H](N)[C@H](O)[C@H](C)O1 [doxorubicin, reference compound]",cells double-positive for PD-L2 and SA-βGal in PyMT tumors,significantly induces double-positive cells
